In PubChem BioAssay (NCI):
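Assay format: 96-well plates, 48-hour exposure. TGI marks complete inhibition of growth.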

test system: 786-0 renal; test: NCI tumour cell line growth inhibition, 48 h

Row | Compound | TGI
1 | COC(=O)C1=C(O)C(C(=O)OC)[C@]2(O)[C@H](C(=O)OC)[C@H]1C[C@@H](c1ccc(F)cc1)[C@H]2C(=O)OC (stereo not given in full) | 32 µM
2 | CCN(CC)C(=C(C(Cl)=C(Cl)Cl)[N+](=O)[O-])N(CC)CC | > 100 µM
3 | CN(C)c1ccc(/C=N\NC(=O)c2ccccc2Nc2ccccc2C(=O)N/N=C/c2ccc(N(C)C)cc2)cc1 | > 100 µM
4 | COc1cc(/C=C(\C#N)c2nc3ccccc3o2)ccc1O | 66.4 µM
5 | COC(=O)c1c(O)ccc2c1c1c(n2Cc2ccccc2)C(=O)c2ccccc2C1=O | 32.1 µM
6 | Cc1cc(C)nc(NS(=O)(=O)c2ccc(NNc3c4ccccc4nc4c(C(=O)Nc5ccc(S(=O)(=O)Nc6ncccn6)cc5)cccc34)cc2)n1 | > 100 µM
7 | CC12CCC3[C@@H](CC3(C)C)C(O)(CCC1=O)C2 (stereo not given in full) | > 100 µM
8 | CO[C@H]1c2cccc3cccc(c23)[C@@H]1n1[nH]c(=O)n(C(C)(C)C)c1=O | > 100 µM
9 | Cc1ccc2nc(CN3CCCC(O)C3)cc(=O)n2c1 (stereo not given) | > 100 µM
10 | OC1(CCc2ccccc2)COC(C(F)(F)F)(C(F)(F)F)C1 (stereo not given) | > 100 µM
11 | CCC(C)C(C(=O)N/N=C1/SCC(=O)N1c1ccccc1)C(=O)N/N=C1/SCC(=O)N1c1ccccc1 (stereo not given) | > 100 µM

test system: A498 renal; test: NCI tumour cell line growth inhibition, 48 h

Row | Compound | TGI
12 | COC(=O)C1=C(O)C(C(=O)OC)[C@]2(O)[C@H](C(=O)OC)[C@H]1C[C@@H](c1ccc(F)cc1)[C@H]2C(=O)OC (stereo not given in full) | 35.1 µM
13 | CCN(CC)C(=C(C(Cl)=C(Cl)Cl)[N+](=O)[O-])N(CC)CC | > 100 µM
14 | CN(C)c1ccc(/C=N\NC(=O)c2ccccc2Nc2ccccc2C(=O)N/N=C/c2ccc(N(C)C)cc2)cc1 | > 100 µM
15 | COc1cc(/C=C(\C#N)c2nc3ccccc3o2)ccc1O | 34.8 µM
16 | CO[C@H]1c2cccc3cccc(c23)[C@@H]1n1[nH]c(=O)n(C(C)(C)C)c1=O | > 100 µM
17 | OC1(CCc2ccccc2)COC(C(F)(F)F)(C(F)(F)F)C1 (stereo not given) | > 100 µM

test system: A549 NSCLC; test: NCI tumour cell line growth inhibition, 48 h

Row | Compound | TGI
18 | COC(=O)C1=C(O)C(C(=O)OC)[C@]2(O)[C@H](C(=O)OC)[C@H]1C[C@@H](c1ccc(F)cc1)[C@H]2C(=O)OC (stereo not given in full) | > 100 µM
19 | CCN(CC)C(=C(C(Cl)=C(Cl)Cl)[N+](=O)[O-])N(CC)CC | > 100 µM
20 | CN(C)c1ccc(/C=N\NC(=O)c2ccccc2Nc2ccccc2C(=O)N/N=C/c2ccc(N(C)C)cc2)cc1 | > 100 µM
21 | COc1cc(/C=C(\C#N)c2nc3ccccc3o2)ccc1O | 43.4 µM
22 | COC(=O)c1c(O)ccc2c1c1c(n2Cc2ccccc2)C(=O)c2ccccc2C1=O | 22.6 µM
23 | Cc1cc(C)nc(NS(=O)(=O)c2ccc(NNc3c4ccccc4nc4c(C(=O)Nc5ccc(S(=O)(=O)Nc6ncccn6)cc5)cccc34)cc2)n1 | > 100 µM
24 | CC12CCC3[C@@H](CC3(C)C)C(O)(CCC1=O)C2 (stereo not given in full) | > 100 µM
25 | CO[C@H]1c2cccc3cccc(c23)[C@@H]1n1[nH]c(=O)n(C(C)(C)C)c1=O | > 100 µM
26 | Cc1ccc2nc(CN3CCCC(O)C3)cc(=O)n2c1 (stereo not given) | > 100 µM
27 | OC1(CCc2ccccc2)COC(C(F)(F)F)(C(F)(F)F)C1 (stereo not given) | > 100 µM
28 | CCC(C)C(C(=O)N/N=C1/SCC(=O)N1c1ccccc1)C(=O)N/N=C1/SCC(=O)N1c1ccccc1 (stereo not given) | > 100 µM

test system: ACHN renal; test: NCI tumour cell line growth inhibition, 48 h

Row | Compound | TGI
29 | COC(=O)C1=C(O)C(C(=O)OC)[C@]2(O)[C@H](C(=O)OC)[C@H]1C[C@@H](c1ccc(F)cc1)[C@H]2C(=O)OC (stereo not given in full) | 43.5 µM
30 | CCN(CC)C(=C(C(Cl)=C(Cl)Cl)[N+](=O)[O-])N(CC)CC | > 100 µM
31 | CN(C)c1ccc(/C=N\NC(=O)c2ccccc2Nc2ccccc2C(=O)N/N=C/c2ccc(N(C)C)cc2)cc1 | > 100 µM
32 | COc1cc(/C=C(\C#N)c2nc3ccccc3o2)ccc1O | 46.9 µM
33 | COC(=O)c1c(O)ccc2c1c1c(n2Cc2ccccc2)C(=O)c2ccccc2C1=O | 25.3 µM
34 | Cc1cc(C)nc(NS(=O)(=O)c2ccc(NNc3c4ccccc4nc4c(C(=O)Nc5ccc(S(=O)(=O)Nc6ncccn6)cc5)cccc34)cc2)n1 | 54.3 µM
35 | CC12CCC3[C@@H](CC3(C)C)C(O)(CCC1=O)C2 (stereo not given in full) | > 100 µM
36 | Cc1ccc2nc(CN3CCCC(O)C3)cc(=O)n2c1 (stereo not given) | > 100 µM
37 | OC1(CCc2ccccc2)COC(C(F)(F)F)(C(F)(F)F)C1 (stereo not given) | > 100 µM
38 | CCC(C)C(C(=O)N/N=C1/SCC(=O)N1c1ccccc1)C(=O)N/N=C1/SCC(=O)N1c1ccccc1 (stereo not given) | > 100 µM

test system: CCRF-CEM leukemia; test: NCI tumour cell line growth inhibition, 48 h

Row | Compound | TGI
39 | COC(=O)C1=C(O)C(C(=O)OC)[C@]2(O)[C@H](C(=O)OC)[C@H]1C[C@@H](c1ccc(F)cc1)[C@H]2C(=O)OC (stereo not given in full) | 70.7 µM
40 | CCN(CC)C(=C(C(Cl)=C(Cl)Cl)[N+](=O)[O-])N(CC)CC | > 100 µM
41 | CN(C)c1ccc(/C=N\NC(=O)c2ccccc2Nc2ccccc2C(=O)N/N=C/c2ccc(N(C)C)cc2)cc1 | > 100 µM
42 | COc1cc(/C=C(\C#N)c2nc3ccccc3o2)ccc1O | > 100 µM
43 | COC(=O)c1c(O)ccc2c1c1c(n2Cc2ccccc2)C(=O)c2ccccc2C1=O | 46.8 µM
44 | Cc1cc(C)nc(NS(=O)(=O)c2ccc(NNc3c4ccccc4nc4c(C(=O)Nc5ccc(S(=O)(=O)Nc6ncccn6)cc5)cccc34)cc2)n1 | 59.9 µM
45 | CC12CCC3[C@@H](CC3(C)C)C(O)(CCC1=O)C2 (stereo not given in full) | > 100 µM
